Assay results as given in ChEMBL document CHEMBL5338723, “Emerging Target-Directed Approaches for the Treatment and Diagnosis of Microbial Infections” (J Med Chem, 2023).
pIC50: −log10 of the molar value. Values after ≈ are worked out from the molar mass of the structure shown. *1 amine or outer side, *2 acyl side, *3 side chain or, on linkers, in order; H or OH if unused. Where a SMILES comes first, the peptide text is derived from it. [ ]: non-standard residue; d: D form. X3 = Cn1c(=O)ccn([C@@H]2S[C@H]([C@@H](O)[C@@H](N[*:1])C(=O)[*:2])[C@H](O)[C@H]2O)c1=O; Orn(N5-OH,N5-Ac) = CC(=O)N(O)CCC[C@H](N)C(=O)O

Experiments:
[1] = test system: Acinetobacter baumannii; test: Antimicrobial activity against Acinetobacter baumannii assessed as microbial growth inhibition; format: functional
[2] = test system: Escherichia coli; test: Antibacterial activity against Escherichia coli assessed as microbial growth inhibition; format: functional
[3] = test system: Acinetobacter genomosp. 13TU; test: Antimicrobial activity against Acinetobacter nosocomialis assessed as microbial growth inhibition; format: functional
[4] = test system: Staphylococcus aureus; test: Antimicrobial activity against Staphylococcus aureus assessed as microbial growth inhibition; format: functional
[5] = test system: Proteus vulgaris; test: Antimicrobial activity against Proteus vulgaris assessed as microbial growth inhibition; format: functional
[6] = test system: Escherichia coli; test: Antimicrobial activity against Escherichia coli assessed as microbial growth inhibition; format: functional
[7] = test system: Mycobacterium tuberculosis; test: Antimicrobial activity against Mycobacterium tuberculosis H37Rv assessed as microbial growth inhibition; format: functional
[8] = test system: Pseudomonas aeruginosa; test: Antibacterial activity against Pseudomonas aeruginosa assessed as microbial growth inhibition; format: functional
[9] = test system: Salmonella typhi; test: Antimicrobial activity against Salmonella enterica subsp. enterica serovar Typhi assessed as microbial growth inhibition; format: functional
[10] = test system: Escherichia coli; test: Antibacterial activity against enterobactin-deficient Escherichia coli harboring delta entA assessed as microbial growth inhibition; format: functional, organism-based
[11] = test system: Escherichia coli; test: Antibacterial activity against wild type Escherichia coli assessed as microbial growth inhibition; format: functional, organism-based
[12] = test system: Escherichia coli; test: Antibacterial activity against enterobactin-deficient Escherichia coli harboring delta entB assessed as microbial growth inhibition; format: functional, organism-based
[13] = test system: Neisseria gonorrhoeae; test: Antimicrobial activity against Neisseria gonorrhoeae assessed as microbial growth inhibition; format: functional

CCCCCCCCCC(=O)N[C@@H](Cc1c[nH]c2ccccc12)C(=O)N[C@H](CC(N)=O)C(=O)N[C@@H](CC(=O)O)C(=O)N[C@@H]1C(=O)NCC(=O)N[C@@H](CCCNC(=O)[C@H](CCSC)NC(=O)[C@H](Cc2ccc(O)cc2)NC(=O)[C@H](CCCCN)NC(=O)[C@@H]2CCCN2C(=O)[C@H](CO)NC(=O)[C@H](Cc2c[nH]c3ccccc23)NC(=O)CN(CCCCNC(=O)c2cccc(O)c2O)C(=O)c2cccc(O)c2O)C(=O)N[C@@H](CC(=O)O)C(=O)N[C@H](C)C(=O)N[C@@H](CC(=O)O)C(=O)NCC(=O)N[C@H](CO)C(=O)N[C@@H](C(C)CC(=O)O)C(=O)N[C@@H](CC(=O)c2ccccc2N)C(=O)O[C@@H]1C (stereo partly drawn)
MIC [1]: 1 µM (≈ 2.81 µg/mL) | MIC [2]: 1 µM (≈ 2.81 µg/mL) | MIC [3]: 1 µM (≈ 2.81 µg/mL)

O=c1[nH]c2ccccc2[nH]/c1=N/N[C@@H]1O[C@H](CO)[C@@H](O)[C@H]1O
MIC [4]: 2.07 µM (≈ 0.638 µg/mL) | MIC [5]: 2.07 µM (≈ 0.638 µg/mL) | MIC [6]: 2.07 µM (≈ 0.638 µg/mL) | MIC [7]: 0.65 µM (≈ 0.2 µg/mL) | MIC [8]: 2.07 µM (≈ 0.638 µg/mL) | MIC [9]: 7.8 µM (≈ 2.4 µg/mL)

CC(=O)Oc1cccc(C(=O)NCCNC(=O)CN2CCN(CC(=O)NCCCC(=O)NC(C(=O)N[C@@H]3C(=O)N4[C@@H]3SC(C)(C)[C@@H]4C(=O)O)c3ccccc3)CCN(CC(=O)NCCNC(=O)c3cccc(OC(C)=O)c3OC(C)=O)CCN(CC(=O)NCCNC(=O)c3cccc(OC(C)=O)c3OC(C)=O)CC2)c1OC(C)=O (stereo partly drawn)
pIC50 [10]: 5.68 | pIC50 [11]: 4.52 | pIC50 [12]: 5.68

CC(=O)N(O)CCC[C@H](NC(=O)[C@H](CCCN(O)C(C)=O)NC(=O)[C@@H](N)CCCN(O)C(C)=O)C(=O)N[C@@H](CO)C(=O)N[C@@H](C(=O)O)[C@H](O)[C@H]1S[C@@H](n2ccc(=O)n(C)c2=O)[C@H](O)[C@H]1O (H-[Orn(N5-OH,N5-Ac)][Orn(N5-OH,N5-Ac)][Orn(N5-OH,N5-Ac)]S[X3]-OH)
MIC [13]: 4 ng/mL (≈ 4.21 nM)
